Test results: ChEMBL document CHEMBL4673302, “Efficient synthesis and antitumor evaluation of 4-aminomethyl-N-arylpyrazoles: Discovery of potent and selective agents for ovarian cancer” (Bioorg Med Chem, 2021)

Test system: 786-0
Assay: Anticancer activity against human 786-0 cells assessed as cell growth inhibition measured after 48 hrs by sulforhodamine B assay
Type: functional
Settings: 48 h

SMILES	GI50 [µM]
CCOC(=O)c1nn(-c2ccc(Cl)cc2)c(-c2ccc([N+](=O)[O-])cc2)c1CNC(C)(C)C	316
CCOC(=O)c1nn(-c2ccccc2)c(-c2ccccc2)c1CNC(C)(C)C [listing 1 of 2 here]	144
CCOC(=O)c1nn(-c2ccc(Cl)cc2)c(-c2ccc(Cl)cc2)c1CNC(C)(C)C [listing 1 of 2 here]	73.7
CCOC(=O)c1nn(-c2ccccc2)c(-c2ccc(Cl)cc2)c1CNC(C)(C)C	86.7
CCOC(=O)c1nn(-c2ccc(Cl)cc2)c(-c2ccc(Cl)cc2)c1CNC(C)(C)C [listing 2 of 2 here]	> 520
CCOC(=O)c1nn(-c2ccccc2)c(-c2ccccc2)c1CNC(C)(C)C [listing 2 of 2 here]	42.4
CCOC(=O)c1nn(-c2ccccc2)c(-c2ccc(OC)cc2)c1CNC(C)(C)C	537

Same assay, conditions: Homo sapiens, 786-0, 48 h

SMILES	GI50 [µM]
CC(C)(C)NCc1c(C(=O)O)nn(-c2ccccc2)c1-c1ccc(Cl)cc1	> 652

Test system: NCI-H460
Assay: Anticancer activity against human NCI-H460 cells assessed as cell growth inhibition measured after 48 hrs by sulforhodamine B assay
Type: functional
Settings: 48 h

SMILES	GI50 [µM]
CCOC(=O)c1nn(-c2ccc(Cl)cc2)c(-c2ccc([N+](=O)[O-])cc2)c1CNC(C)(C)C	> 548
CCOC(=O)c1nn(-c2ccccc2)c(-c2ccccc2)c1CNC(C)(C)C [listing 1 of 2 here]	76.9
CCOC(=O)c1nn(-c2ccc(Cl)cc2)c(-c2ccc(Cl)cc2)c1CNC(C)(C)C [listing 1 of 2 here]	144
CCOC(=O)c1nn(-c2ccccc2)c(-c2ccc(Cl)cc2)c1CNC(C)(C)C	69.2
CCOC(=O)c1nn(-c2ccc(Cl)cc2)c(-c2ccc(Cl)cc2)c1CNC(C)(C)C [listing 2 of 2 here]	> 520
CCOC(=O)c1nn(-c2ccccc2)c(-c2ccccc2)c1CNC(C)(C)C [listing 2 of 2 here]	195

Same assay, conditions: Homo sapiens, NCI-H460, 48 h

SMILES	GI50 [µM]
CC(C)(C)NCc1c(C(=O)O)nn(-c2ccccc2)c1-c1ccc(Cl)cc1	70.5
CCOC(=O)c1nn(-c2ccccc2)c(-c2ccc(OC)cc2)c1CNC(C)(C)C	119

Test system: OVCAR-3
Assay: Anticancer activity against human OVCAR-3 cells assessed as cell growth inhibition measured after 48 hrs by sulforhodamine B assay
Type: functional
Settings: 48 h

SMILES	GI50 [µM]
CCOC(=O)c1nn(-c2ccc(Cl)cc2)c(-c2ccc([N+](=O)[O-])cc2)c1CNC(C)(C)C	206
CCOC(=O)c1nn(-c2ccccc2)c(-c2ccccc2)c1CNC(C)(C)C [listing 1 of 2 here]	1.01
CCOC(=O)c1nn(-c2ccc(Cl)cc2)c(-c2ccc(Cl)cc2)c1CNC(C)(C)C [listing 1 of 2 here]	21.6
CCOC(=O)c1nn(-c2ccccc2)c(-c2ccc(Cl)cc2)c1CNC(C)(C)C	0.134
CCOC(=O)c1nn(-c2ccc(Cl)cc2)c(-c2ccc(Cl)cc2)c1CNC(C)(C)C [listing 2 of 2 here]	> 520
CCOC(=O)c1nn(-c2ccccc2)c(-c2ccccc2)c1CNC(C)(C)C [listing 2 of 2 here]	195
CCOC(=O)c1nn(-c2ccccc2)c(-c2ccc(OC)cc2)c1CNC(C)(C)C	0.047

Same assay, conditions: Homo sapiens, OVCAR-3, 48 h

SMILES	GI50 [µM]
CC(C)(C)NCc1c(C(=O)O)nn(-c2ccccc2)c1-c1ccc(Cl)cc1	> 652

Test system: U-251
Assay: Anticancer activity against human U-251 cells assessed as cell growth inhibition measured after 48 hrs by sulforhodamine B assay
Type: functional
Settings: 48 h

SMILES	GI50 [µM]
CCOC(=O)c1nn(-c2ccccc2)c(-c2ccccc2)c1CNC(C)(C)C [listing 1 of 2 here]	81.5
CCOC(=O)c1nn(-c2ccc(Cl)cc2)c(-c2ccc(Cl)cc2)c1CNC(C)(C)C [listing 1 of 2 here]	6.4
CCOC(=O)c1nn(-c2ccccc2)c(-c2ccc(Cl)cc2)c1CNC(C)(C)C	73.8
CCOC(=O)c1nn(-c2ccc(Cl)cc2)c(-c2ccc(Cl)cc2)c1CNC(C)(C)C [listing 2 of 2 here]	> 520
CCOC(=O)c1nn(-c2ccccc2)c(-c2ccccc2)c1CNC(C)(C)C [listing 2 of 2 here]	440
CCOC(=O)c1nn(-c2ccccc2)c(-c2ccc(OC)cc2)c1CNC(C)(C)C	134

Same assay, conditions: Homo sapiens, U-251, 48 h

SMILES	GI50 [µM]
CC(C)(C)NCc1c(C(=O)O)nn(-c2ccccc2)c1-c1ccc(Cl)cc1	> 652
CCOC(=O)c1nn(-c2ccc(Cl)cc2)c(-c2ccc([N+](=O)[O-])cc2)c1CNC(C)(C)C	> 548

Test system: HT-29
Assay: Anticancer activity against human HT-29 cells assessed as cell growth inhibition measured after 48 hrs by sulforhodamine B assay
Type: functional
Settings: 48 h

SMILES	GI50 [µM]
CCOC(=O)c1nn(-c2ccc(Cl)cc2)c(-c2ccc(Cl)cc2)c1CNC(C)(C)C [listing 1 of 2 here]	57.7
CCOC(=O)c1nn(-c2ccccc2)c(-c2ccc(Cl)cc2)c1CNC(C)(C)C	58.5
CCOC(=O)c1nn(-c2ccc(Cl)cc2)c(-c2ccc(Cl)cc2)c1CNC(C)(C)C [listing 2 of 2 here]	> 520
CCOC(=O)c1nn(-c2ccccc2)c(-c2ccccc2)c1CNC(C)(C)C [listing 2 of 2 here]	94.6

Same assay, conditions: Homo sapiens, HT-29, 48 h

SMILES	GI50 [µM]
CC(C)(C)NCc1c(C(=O)O)nn(-c2ccccc2)c1-c1ccc(Cl)cc1	353
CCOC(=O)c1nn(-c2ccc(Cl)cc2)c(-c2ccc([N+](=O)[O-])cc2)c1CNC(C)(C)C	42.3
CCOC(=O)c1nn(-c2ccccc2)c(-c2ccccc2)c1CNC(C)(C)C [listing 1 of 2 here]	69.6
CCOC(=O)c1nn(-c2ccccc2)c(-c2ccc(OC)cc2)c1CNC(C)(C)C	61.3

Test system: HaCaT
Assay: (§1) Cytotoxicity against human HaCaT cells assessed as cell growth inhibition measured after 48 hrs by sulforhodamine B assay
Type: cell-based
Settings: hacat, 48 h

SMILES	GI50 [µM]
CCOC(=O)c1nn(-c2ccc(Cl)cc2)c(-c2ccc([N+](=O)[O-])cc2)c1CNC(C)(C)C	10.3
CCOC(=O)c1nn(-c2ccccc2)c(-c2ccccc2)c1CNC(C)(C)C [listing 1 of 2 here]	77
CCOC(=O)c1nn(-c2ccc(Cl)cc2)c(-c2ccc(Cl)cc2)c1CNC(C)(C)C [listing 1 of 2 here]	2.9
CCOC(=O)c1nn(-c2ccccc2)c(-c2ccc(Cl)cc2)c1CNC(C)(C)C	63.5
CCOC(=O)c1nn(-c2ccc(Cl)cc2)c(-c2ccc(Cl)cc2)c1CNC(C)(C)C [listing 2 of 2 here]	> 520
CCOC(=O)c1nn(-c2ccccc2)c(-c2ccccc2)c1CNC(C)(C)C [listing 2 of 2 here]	13.3
CCOC(=O)c1nn(-c2ccccc2)c(-c2ccc(OC)cc2)c1CNC(C)(C)C	68.3

Test system: not listed separately
Assay: as §1
Type: cell-based
Settings: HaCaT cells

SMILES	GI50 at 48 h [µM]
CC(C)(C)NCc1c(C(=O)O)nn(-c2ccccc2)c1-c1ccc(Cl)cc1	> 652

Test system: MCF7
Assay: Anticancer activity against human MCF7 cells assessed as cell growth inhibition measured after 48 hrs by sulforhodamine B assay
Type: functional
Settings: 48 h

SMILES	GI50 [µM]
CCOC(=O)c1nn(-c2ccc(Cl)cc2)c(-c2ccc([N+](=O)[O-])cc2)c1CNC(C)(C)C	> 548
CCOC(=O)c1nn(-c2ccccc2)c(-c2ccccc2)c1CNC(C)(C)C [listing 1 of 2 here]	81.7
CCOC(=O)c1nn(-c2ccc(Cl)cc2)c(-c2ccc(Cl)cc2)c1CNC(C)(C)C [listing 1 of 2 here]	120
CCOC(=O)c1nn(-c2ccccc2)c(-c2ccc(Cl)cc2)c1CNC(C)(C)C	72.4
CCOC(=O)c1nn(-c2ccc(Cl)cc2)c(-c2ccc(Cl)cc2)c1CNC(C)(C)C [listing 2 of 2 here]	> 520
CCOC(=O)c1nn(-c2ccccc2)c(-c2ccccc2)c1CNC(C)(C)C [listing 2 of 2 here]	504
CCOC(=O)c1nn(-c2ccccc2)c(-c2ccc(OC)cc2)c1CNC(C)(C)C	116

Same assay, conditions: Homo sapiens, MCF7, 48 h

SMILES	GI50 [µM]
CC(C)(C)NCc1c(C(=O)O)nn(-c2ccccc2)c1-c1ccc(Cl)cc1	> 652

Test system: K562
Assay: Anticancer activity against human K562 cells assessed as cell growth inhibition measured after 48 hrs by sulforhodamine B assay
Type: functional
Settings: 48 h

SMILES	GI50 [µM]
CCOC(=O)c1nn(-c2ccc(Cl)cc2)c(-c2ccc([N+](=O)[O-])cc2)c1CNC(C)(C)C	181
CCOC(=O)c1nn(-c2ccccc2)c(-c2ccccc2)c1CNC(C)(C)C [listing 1 of 2 here]	9.62
CCOC(=O)c1nn(-c2ccc(Cl)cc2)c(-c2ccc(Cl)cc2)c1CNC(C)(C)C [listing 1 of 2 here]	11.2
CCOC(=O)c1nn(-c2ccccc2)c(-c2ccc(Cl)cc2)c1CNC(C)(C)C	57.6
CCOC(=O)c1nn(-c2ccc(Cl)cc2)c(-c2ccc(Cl)cc2)c1CNC(C)(C)C [listing 2 of 2 here]	> 520
CCOC(=O)c1nn(-c2ccccc2)c(-c2ccccc2)c1CNC(C)(C)C [listing 2 of 2 here]	113
CCOC(=O)c1nn(-c2ccccc2)c(-c2ccc(OC)cc2)c1CNC(C)(C)C	66.6

Same assay, conditions: Homo sapiens, K562, 48 h

SMILES	GI50 [µM]
CC(C)(C)NCc1c(C(=O)O)nn(-c2ccccc2)c1-c1ccc(Cl)cc1	364

Test system: PC-3
Assay: Anticancer activity against human PC-3 cells assessed as cell growth inhibition measured after 48 hrs by sulforhodamine B assay
Type: functional
Settings: 48 h

SMILES	GI50 [µM]
CCOC(=O)c1nn(-c2ccccc2)c(-c2ccccc2)c1CNC(C)(C)C [listing 1 of 2 here]	39.9
CCOC(=O)c1nn(-c2ccc(Cl)cc2)c(-c2ccc(Cl)cc2)c1CNC(C)(C)C [listing 1 of 2 here]	196
CCOC(=O)c1nn(-c2ccccc2)c(-c2ccc(Cl)cc2)c1CNC(C)(C)C	28.6
CCOC(=O)c1nn(-c2ccc(Cl)cc2)c(-c2ccc(Cl)cc2)c1CNC(C)(C)C [listing 2 of 2 here]	> 520
CCOC(=O)c1nn(-c2ccccc2)c(-c2ccccc2)c1CNC(C)(C)C [listing 2 of 2 here]	91.7
CCOC(=O)c1nn(-c2ccccc2)c(-c2ccc(OC)cc2)c1CNC(C)(C)C	530

Same assay, conditions: Homo sapiens, PC-3, 48 h

SMILES	GI50 [µM]
CC(C)(C)NCc1c(C(=O)O)nn(-c2ccccc2)c1-c1ccc(Cl)cc1	145
CCOC(=O)c1nn(-c2ccc(Cl)cc2)c(-c2ccc([N+](=O)[O-])cc2)c1CNC(C)(C)C	> 548
